# Source: ChEMBL document CHEMBL5036328, “Nonpeptidic, Polo-Box Domain-Targeted Inhibitors of PLK1 Block Kinase Activity, Induce Its Degradation and Target-Resistant Cells” (J Med Chem, 2021)
# pEC50, pIC50: −log10 of the molar value. Active and inactive are the calls of the source. No cut-off for these calls is given here.
# System: PC-3
# Experiment: Antiproliferative activity against human PC-3 cells assessed as reduction in cell viability incubated for 72 hrs by MTT assay
# Type: functional, cell-based
# Details: PC-3, 72 h
row,SMILES,pIC50
1,CCCCCCCCCc1ccc(C(=O)Nc2ccc(C)cc2C(=O)O)cc1,4.52
2,CCCCCCCCNc1ccc(C(=O)Nc2cc(C)ccc2C(=O)O)cc1,4.70
3,Cc1ccc(C(=O)O)c(NC(=O)c2ccc(N)cc2)c1,< 3.92
4,CCCCCCCSc1ccc(C(=O)Nc2ccc(C)cc2C(=O)O)cc1,4.84
5,CCCCCCCCSc1ccc(C(=O)Nc2ccc(C)cc2C(=O)O)cc1,4.82
6,CCCCCCCNc1ccc(C(=O)Nc2ccc(C)cc2C(=O)O)cc1,4.50
7,CCCCCCCCCc1ccc(C(=O)Nc2cc(C)ccc2C(=O)O)cc1,4.74
8,CCCCCCCOc1ccc(C(=O)Nc2ccccc2C(=O)O)cc1,4.52
9,CCCCCCCCOc1ccc(C(=O)Nc2ccc(C)cc2C(=O)O)cc1,4.66

# The remaining lines, values ahead:
row,pIC50,SMILES
1,4.78,CCCCCCCCCCCCc1ccc(C(=O)Nc2ccc(C)cc2C(=O)O)cc1
2,< 3.92,CCCCCCCCCc1ccc(C(=O)Nc2cc(C)ccc2C(=O)OC)cc1
3,4.38,CCCCCCCNc1ccc(C(=O)Nc2ccccc2C(=O)O)cc1
4,4.77,CCCCCCCCCCCCc1ccc(C(=O)Nc2cc(C)ccc2C(=O)O)cc1
5,4.44,CCCCCCCCNc1ccc(C(=O)Nc2ccc(C)cc2C(=O)O)cc1
6,4.56,CCCCCCCSc1ccc(C(=O)Nc2ccccc2C(=O)O)cc1
7,4.59,CCCCCCCCSc1ccc(C(=O)Nc2cc(C)ccc2C(=O)O)cc1
8,4.37,CCCCCCCOc1ccc(C(=O)Nc2ccc(C)cc2C(=O)O)cc1
9,4.64,CCCCCCCCCCc1ccc(C(=O)Nc2ccc(C)cc2C(=O)O)cc1
10,4.85,CCCCCCCCc1ccc(C(=O)Nc2ccc(C(F)(F)F)cc2C(=O)O)cc1

# System: HRPE
# Experiment: Antiproliferative activity against human RPE cells expressing C67V mutant PLK1 assessed as reduction in cell viability upto 120 uM after 72 hrs by MTT assay
# Type: functional, cell-based
# Details: not given
row,SMILES,Activity
1,CCCCCCCCCc1ccc(C(=O)Nc2cc(C)ccc2C(=O)OC)cc1,inactive

# System: PC-3
# Experiment: Induction of cell cycle arrest in human PC-3 cells assessed as reduction in G2/M phase at 45 uM incubated for 23 hrs in presence of colcemid by flow cytometry analysis (reference value: 67%)
# Type: functional
# Set-up: scale not given: the % may be the effect or the level left
# Details: not given
row,SMILES,Activity [%]
1,CCCCCCCCSc1ccc(C(=O)Nc2ccc(C)cc2C(=O)O)cc1,20

# Target: T1, Serine/threonine-protein kinase PLK1 (Homo sapiens, UniProt P53350)
# Experiment: Induction of PLK1 degradation in human PC-3 cells at 30 uM pretreated with proteosome inhibitor MG132 for 1 hr followed by compound addition and measured after 23 hrs by Western blot analysis relative to control
# Type: cell-based
# Set-up: scale not given: the % may be the effect or the level left
# Details: not given
# T1 sequence (P53350 whole entry): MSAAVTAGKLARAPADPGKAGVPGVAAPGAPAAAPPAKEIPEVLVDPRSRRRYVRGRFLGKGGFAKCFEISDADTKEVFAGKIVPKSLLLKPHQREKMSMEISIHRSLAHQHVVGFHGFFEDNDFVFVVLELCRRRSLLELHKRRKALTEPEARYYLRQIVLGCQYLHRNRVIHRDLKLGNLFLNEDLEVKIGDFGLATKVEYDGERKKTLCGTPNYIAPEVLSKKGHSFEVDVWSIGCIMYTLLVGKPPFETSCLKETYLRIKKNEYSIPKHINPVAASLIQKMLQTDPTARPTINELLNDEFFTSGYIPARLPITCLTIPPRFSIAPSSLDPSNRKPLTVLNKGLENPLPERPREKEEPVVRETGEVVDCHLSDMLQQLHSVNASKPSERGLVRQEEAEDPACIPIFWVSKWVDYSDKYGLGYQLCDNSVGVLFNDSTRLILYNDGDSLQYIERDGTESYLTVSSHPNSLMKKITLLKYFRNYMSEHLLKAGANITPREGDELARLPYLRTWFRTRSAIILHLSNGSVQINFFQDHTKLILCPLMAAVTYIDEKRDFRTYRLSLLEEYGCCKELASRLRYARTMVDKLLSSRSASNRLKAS
row,Activity [%],SMILES
1,25,CCCCCCCCSc1ccc(C(=O)Nc2ccc(C)cc2C(=O)O)cc1

# System: HRPE
# Experiment: Antiproliferative activity against human RPE cells expressing wild type PLK1 assessed as reduction in cell viability upto 120 uM after 72 hrs by MTT assay
# Type: functional, cell-based
# Details: not given
row,SMILES,Activity
1,CCCCCCCCCc1ccc(C(=O)Nc2cc(C)ccc2C(=O)OC)cc1,inactive

# Target: T1, Serine/threonine-protein kinase PLK1
# Experiment: Induction of PLK1 degradation in human PC-3 cells measured for 23 hrs by Western blot analysis
# Type: cell-based
# Details: not given
row,Activity,SMILES
1,Dose-Dependent Effect,CCCCCCCCSc1ccc(C(=O)Nc2ccc(C)cc2C(=O)O)cc1

# Target: T1, Serine/threonine-protein kinase PLK1
# Experiment: Induction of PLK1 degradation in human PC-3 cells at 30 uM measured for 23 hrs by Western blot analysis relative to control
# Type: cell-based
# Details: not given
row,Activity [%],SMILES
1,5,CCCCCCCCSc1ccc(C(=O)Nc2ccc(C)cc2C(=O)O)cc1

# Target: T1, Serine/threonine-protein kinase PLK1
# Experiment: Binding affinity to […] (unknown origin) using MAGPMQS[pT]PLNGAKK tracer peptide as substrate by fluorescence polarization binding assay
# Details: not given
row,SMILES,pIC50
1,CCCCCCCCCc1ccc(C(=O)Nc2ccc(C)cc2C(=O)O)cc1,4.47
2,CCCCCCCCNc1ccc(C(=O)Nc2cc(C)ccc2C(=O)O)cc1,4.57
3,Cc1ccc(C(=O)O)c(NC(=O)c2ccc(N)cc2)c1,< 3.22
4,CCCCCCCSc1ccc(C(=O)Nc2ccc(C)cc2C(=O)O)cc1,4.63
5,CCCCCCCCOc1ccc(C(=O)Nc2cc(C)ccc2C(=O)O)cc1,4.53
6,CCCCCCCCSc1ccc(C(=O)Nc2ccc(C)cc2C(=O)O)cc1,4.57
7,CCCCCCCCCc1ccc(C(=O)Nc2ccc(C)cc2C(=O)OC)cc1,< 3.22
8,CCCCCCCNc1ccc(C(=O)Nc2ccc(C)cc2C(=O)O)cc1,4.38
9,CCCCCCCCCc1ccc(C(=O)Nc2cc(C)ccc2C(=O)O)cc1,4.55
10,CCCCCCCOc1ccc(C(=O)Nc2ccccc2C(=O)O)cc1,4.43
11,CCCCCCCCOc1ccc(C(=O)Nc2ccc(C)cc2C(=O)O)cc1,4.54

# The remaining lines, values ahead:
row,pIC50,SMILES
1,4.58,CCCCCCCCCCCCc1ccc(C(=O)Nc2ccc(C)cc2C(=O)O)cc1
2,< 3.22,CCCCCCCCCc1ccc(C(=O)Nc2cc(C)ccc2C(=O)OC)cc1
3,4.06,CCCCCCCNc1ccc(C(=O)Nc2ccccc2C(=O)O)cc1
4,4.59,CCCCCCCCCCCCc1ccc(C(=O)Nc2cc(C)ccc2C(=O)O)cc1
5,4.14,CCCCCCCCNc1ccc(C(=O)Nc2ccc(C)cc2C(=O)O)cc1
6,4.54,CCCCCCCSc1ccc(C(=O)Nc2ccccc2C(=O)O)cc1
7,4.55,CCCCCCCCSc1ccc(C(=O)Nc2cc(C)ccc2C(=O)O)cc1
8,4.46,CCCCCCCOc1ccc(C(=O)Nc2ccc(C)cc2C(=O)O)cc1
9,4.62,CCCCCCCCCCc1ccc(C(=O)Nc2ccc(C)cc2C(=O)O)cc1

# System: PC-3
# Experiment: Induction of cell cycle arrest in human PC-3 cells at 60 uM incubated for 23 hrs in presence of colcemid by flow cytometry analysis
# Type: functional, cell-based
# Details: not given
row,SMILES,Activity
1,CCCCCCCCCc1ccc(C(=O)Nc2cc(C)ccc2C(=O)OC)cc1,inactive

# Target: T1, Serine/threonine-protein kinase PLK1
# Experiment: Induction of PLK1 degradation in human PC-3 cells at 45 uM pretreated with proteosome inhibitor MG132 for 1 hr followed by compound addition and measured after 23 hrs by Western blot analysis relative to control
# Type: cell-based
# Set-up: scale not given: the % may be the effect or the level left
# Details: not given
row,Activity [%],SMILES
1,16,CCCCCCCCSc1ccc(C(=O)Nc2ccc(C)cc2C(=O)O)cc1

# Target: T1, Serine/threonine-protein kinase PLK1
# Experiment: Inhibition of PLK1 in human PC-3 cells assessed as reduction in phosphorylation of TCTP at ser46 measured after 23 hrs by immunoblotting analysis
# Type: cell-based
# Details: not given
row,inhibition,SMILES
1,Active,CCCCCCCCSc1ccc(C(=O)Nc2ccc(C)cc2C(=O)O)cc1

# Target: T1, Serine/threonine-protein kinase PLK1
# Experiment: Induction of PLK1 degradation in human PC-3 cells at 45 uM measured for 23 hrs by Western blot analysis relative to control
# Type: cell-based
# Details: not given
row,Activity [%],SMILES
1,7,CCCCCCCCSc1ccc(C(=O)Nc2ccc(C)cc2C(=O)O)cc1

# Target: T1, Serine/threonine-protein kinase PLK1
# Experiment: Inhibition of PLK1 in human PC-3 cells assessed as reduction in phosphorylation of TCTP at ser46 measured after 23 hrs in presence of colcemid by immunoblotting analysis
# Type: cell-based
# Details: not given
row,inhibition,SMILES
1,inactive,CCCCCCCCCc1ccc(C(=O)Nc2cc(C)ccc2C(=O)OC)cc1
2,Active,CCCCCCCCSc1ccc(C(=O)Nc2ccc(C)cc2C(=O)O)cc1

# Target: T1, Serine/threonine-protein kinase PLK1
# Experiment: Induction of PLK1 degradation in human PC-3 cells upto 60 uM measured after 23 hrs by Western blot analysis
# Type: cell-based
# Details: dose microM <=60, time 23.0 hrs
row,Activity,SMILES
1,inactive,CCCCCCCCCc1ccc(C(=O)Nc2cc(C)ccc2C(=O)OC)cc1

# Target: T1, Serine/threonine-protein kinase PLK1
# Experiment: Binding affinity to PLK1 in human PC-3 cells incubated for 2 hrs followed by heat shock for 10 mins by cellular thermal shift assay
# Type: cell-based
# Details: not given
row,pEC50,SMILES
1,6.19,CCCCCCCCSc1ccc(C(=O)Nc2ccc(C)cc2C(=O)O)cc1

# Same assay, conditions: time 130.0 min
row,Activity,SMILES
1,inactive,CCCCCCCCCc1ccc(C(=O)Nc2cc(C)ccc2C(=O)OC)cc1

# System: HeLa
# Experiment: Antiproliferative activity against human HeLa cells assessed as reduction in cell viability incubated for 72 hrs by MTT assay
# Type: functional, cell-based
# Details: not given
row,SMILES,pIC50
1,CCCCCCCCCc1ccc(C(=O)Nc2ccc(C)cc2C(=O)O)cc1,4.67
2,Cc1ccc(C(=O)O)c(NC(=O)c2ccc(N)cc2)c1,< 3.92
3,CCCCCCCSc1ccc(C(=O)Nc2ccc(C)cc2C(=O)O)cc1,5.03
4,CCCCCCCCOc1ccc(C(=O)Nc2cc(C)ccc2C(=O)O)cc1,4.71
5,CCCCCCCCSc1ccc(C(=O)Nc2ccc(C)cc2C(=O)O)cc1,4.92
6,CCCCCCCNc1ccc(C(=O)Nc2ccc(C)cc2C(=O)O)cc1,4.73

# Second part, the compound after the results:
row,pIC50,SMILES
1,4.97,CCCCCCCCCCCCc1ccc(C(=O)Nc2ccc(C)cc2C(=O)O)cc1
2,< 3.92,CCCCCCCCCc1ccc(C(=O)Nc2cc(C)ccc2C(=O)OC)cc1
3,4.50,CCCCCCCOc1ccc(C(=O)Nc2ccc(C)cc2C(=O)O)cc1
4,4.81,CCCCCCCCCCc1ccc(C(=O)Nc2ccc(C)cc2C(=O)O)cc1
5,4.98,CCCCCCCCc1ccc(C(=O)Nc2ccc(C(F)(F)F)cc2C(=O)O)cc1

# System: PC-3
# Experiment: Induction of cell cycle arrest in human PC-3 cells at 10 to 45 uM incubated for 23 hrs by flow cytometry analysis
# Type: functional, cell-based
# Details: dose 10-45 µM
row,SMILES,Activity
1,CCCCCCCCSc1ccc(C(=O)Nc2ccc(C)cc2C(=O)O)cc1,inactive

# Target: T1, Serine/threonine-protein kinase PLK1
# Experiment: Induction of PLK1 degradation in human PC-3 cells at 10 uM pretreated with proteosome inhibitor MG132 for 1 hr followed by compound addition and measured after 23 hrs by Western blot analysis relative to control
# Type: cell-based
# Set-up: scale not given: the % may be the effect or the level left
# Details: not given
row,Activity [%],SMILES
1,64,CCCCCCCCSc1ccc(C(=O)Nc2ccc(C)cc2C(=O)O)cc1

# Target: T1, Serine/threonine-protein kinase PLK1
# Experiment: Induction of PLK1 degradation in human DU-145 cells measured for 23 hrs by Western blot analysis
# Type: cell-based
# Details: dose 10-45 µM
row,Activity,SMILES
1,Dose-Dependent Effect,CCCCCCCCSc1ccc(C(=O)Nc2ccc(C)cc2C(=O)O)cc1

# Target: T1, Serine/threonine-protein kinase PLK1
# Experiment: Induction of PLK1 degradation in human PC-3 cells at 10 uM measured for 23 hrs by Western blot analysis relative to control
# Type: cell-based
# Details: not given
row,Activity [%],SMILES
1,30,CCCCCCCCSc1ccc(C(=O)Nc2ccc(C)cc2C(=O)O)cc1

# Target: T1, Serine/threonine-protein kinase PLK1
# Experiment: Induction of PLK1 degradation in human PC-3 cells measured after 23 hrs in presence of colcemid by Western blot analysis
# Type: cell-based
# Details: dose 10-45 µM
row,Activity,SMILES
1,Dose-Dependent Effect,CCCCCCCCSc1ccc(C(=O)Nc2ccc(C)cc2C(=O)O)cc1

# System: HRPE
# Experiment: Antiproliferative activity against human RPE cells expressing wild-type PLK1 assessed as reduction in cell viability after 72 hrs by MTT assay
# Type: functional, cell-based
# Details: not given
row,SMILES,Activity
1,CCCCCCCCCCCCc1ccc(C(=O)Nc2ccc(C)cc2C(=O)O)cc1,Active
2,CCCCCCCSc1ccc(C(=O)Nc2ccc(C)cc2C(=O)O)cc1,Active

# System: HRPE
# Experiment: Antiproliferative activity against human RPE cells expressing C67V mutant PLK1 assessed as reduction in cell viability after 72 hrs by MTT assay
# Type: functional, cell-based
# Details: not given
row,SMILES,Activity
1,CCCCCCCCCCCCc1ccc(C(=O)Nc2ccc(C)cc2C(=O)O)cc1,Active
2,CCCCCCCSc1ccc(C(=O)Nc2ccc(C)cc2C(=O)O)cc1,Active
